Reference: PubChem BioAssay (NCI)
Where “and” joins values, the source holds several entries; their conditions need not be identical. Identical values can stand only once.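 A five-concentration, 48-hour dose response in 96-well plates underlies each endpoint, interpolated linearly between surrounding concentrations. GI50 is the concentration that inhibits growth by half. TGI: concentration producing complete growth inhibition.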

Columns and labels:
Test in all cases: NCI-60 cell line screen, 48 h
[1] = system: MDA-N
[2] = system: PC-3 prostate
[3] = system: M19-MEL melanoma
[4] = system: DMS 114 small cell lung
[5] = system: LXFL 529 NSCLC
[6] = system: DLD-1 colon
[7] = system: RXF-631 renal

SMILES | TGI [1] [µM] | TGI [2] | GI50 [2] | TGI [3] [µM] | TGI [4] [µM] | TGI [5] [µM] | TGI [6] [µM] | TGI [7] [µM]
Cc1cccc(C)c1NC(=O)Nc1ccc(S(N)(=O)=O)cc1 | > 100 | > 100 µM | – | – | – | – | – | –
N#CC1=C(N)NC(N2CCOCC2)=NC12Nc1ccccc1N2 | – | > 100 µM | 46.1 µM | – | – | – | – | –
Cc1c(C(=O)/C=C/c2ccc(N(C)C)cc2)c(=O)n(-c2ccccc2)n1C | – | – | – | > 100 | > 100 | > 100 | – | –
O=C(Nc1cccc(O)c1)C(=O)C(C(=O)c1ccc(Cl)c(Cl)c1)C1OC(=O)c2ccccc21 (stereo not given) | – | – | – | 27.1 | 33.3 | 24.6 | – | –
CCn1c(-c2cc3ccccc3cc2O)nn(C(=O)c2c(Cl)cccc2Cl)c1=S | – | > 50 µM | > 50 µM | – | – | – | – | –
O=C1C(Cl)C(c2ccccc2O)N1n1cnc2ccccc2c1=O (stereo not given) | – | – | – | > 100 | 81.4 | > 100 | > 100 | –
COc1cccc(NC(=O)c2sc3nc4c(cc3c2N)C(=O)CCC4)c1 | – | > 100 µM | 0.11 µM | – | – | – | – | –
O=c1[nH]c2cc(Cl)ccc2nc1/C(=N\O)C(O)c1ccc([N+](=O)[O-])cc1 (stereo not given) | – | – | – | > 100 | > 100 | > 100 | > 100 | –
CN(C)C=C1C(Cl)=C(C=O)CC(C=O)=C1Cl | – | – | – | 29.1 | 26.1 | 4.45 | 20.9 | –
N#CCN/C=C\C(=O)c1ccc(Cl)cc1 | – | > 100 µM | 29.5 µM | – | – | – | – | –
CC(C)(C)C1CCC2c3c([nH]c4ccccc34)C3C(=O)N(c4ccccc4)C(=O)C3C2C1 (stereo not given) | – | – | – | 23.7 | 20.7 | 32.3 | > 100 | –
Cc1cc(C)c(Cn2cnc3c(Cl)ncnc32)c(C)c1CCl | – | > 100 µM | > 100 µM | – | – | – | – | –
COc1cc(CNc2ccccc2C(=O)N2CCN(C(=O)c3cc(-c4cc(OC)c(OC)c(OC)c4)n4nc(-c5ccccc5)cc4n3)CC2)cc(OC)c1OC | – | > 100 µM | 2.35 µM | – | – | – | – | –
CNC(=O)Cc1nc(-c2cccc(NS(=O)(=O)c3c(F)cccc3F)c2F)c(-c2ccnc(Nc3ccccc3)n2)s1 | – | > 50 µM | 20.9 µM | – | – | – | – | –
C=C[C@@]1(O)CCCC2=C(C(=O)OCC)CC[C@]21C | – | – | – | > 100 | > 100 | > 100 | > 100 | –
CC[N+]1(C)CCC(O)(c2ccc(OC)cc2)C(C(=O)c2ccc(OC)cc2)C1 (stereo not given) | 31.9 | 31.8 µM | – | 42.4 | 45.9 | 9.76 | 8.03 | 34.5
CN/N=C(\C)C(CN(C)C)C(c1ccccc1)c1c(O)c2ccccc2oc1=O (stereo not given) | > 100 | > 100 µM | – | – | – | – | – | –
COc1ccc(C(=O)c2cc3c(N)c(C(=O)Nc4ccc(C)cc4)sc3nc2C)cc1 | – | > 100 µM | 4.2 µM | – | – | – | – | –
Cc1cc(N2CCSCC2)nc(NC2CCCC(Nc3ccnc4cc(Cl)ccc34)C2)n1 (stereo not given) | – | 4.52 µM | 2.1 µM | – | – | – | – | –
O=Cc1ccc(-c2ccc(-c3nc4ccccc4o3)cc2)o1 | – | > 100 µM | 30.3 µM | – | – | – | – | –

SMILES | TGI [1] [µM] | TGI [2] | GI50 [2] | TGI [3] [µM] | TGI [4] [µM] | TGI [5] [µM] | TGI [6] [µM] | TGI [7] [µM]
C=C(Nc1ccc([N+](=O)[O-])cc1[N+](=O)[O-])c1c/c(=N\NC(N)=S)c2ccccc2o1 | > 100 | > 100 µM | – | – | – | – | – | –
Cc1cc(Cl)ccc1NC(=O)C(=O)C(C(=O)c1ccc2ccccc2c1)C1OC(=O)c2ccccc21 (stereo not given) | – | – | – | 29.7 | 23.7 | 19 | 30.4 | 31.2
O=C1C=CC(=O)c2cc(Sc3ccccc3)c(=O)ccc21 | 33.4 | 33.2 µM | – | 35.3 | 38.5 | 20.3 | 39 | 43.4
CCCN(CCCC(NC(C)=O)C(=O)NCc1ccccc1)C(=O)NCCCl (stereo not given) | – | – | – | > 100 | > 100 | > 100 | > 100 | > 100
O=C1/C(=C\c2ccccn2)c2ccccc2N1c1c(Cl)cccc1Cl | – | > 26.3 µM | 2.79 µM | – | – | – | – | –
C[N+](C)(C)CC(=O)N/N=C(\C(=O)NC1=C(Cl)C(=O)c2ccccc2C1=O)C(C#N)c1csc(-c2ccc([N+](=O)[O-])cc2)n1 (stereo not given) | – | – | – | > 100 | > 100 | > 100 | > 100 | > 100
COC1=CC(=O)C2C(C1=O)C(c1ccccc1)[C@H]2C (stereo not given in full) | – | – | – | – | – | > 100 | > 10 | –
Cc1sc2c(c1C)C(c1ccc(Cl)cc1)=N[C@@H](CC(=O)OC(C)(C)C)c1nnc(C)n1-2 | – | 24.6 µM and 16.7 µM | 1.58 µM and 1.08 µM | – | – | – | – | –
CCCCCCCCCCCCCCCCCC(=O)OCC(COC(=O)CCCN)OC(=O)CCCN (stereo not given) | 39.4 | 35.5 µM | – | – | – | – | – | –
COc1ccc(OC)c2c1[nH]c(=O)c1c3ncccc3cn21 | – | > 100 µM | 4.73 µM | – | – | – | – | –
CCc1cc(CCC(=O)Nc2c(C)cccc2C)[nH]n1 | – | – | – | > 100 | – | > 100 | > 100 | > 100
COC(=O)Cc1ccc(Oc2cnc3cc(F)c(F)cc3n2)cc1 | – | > 100 µM | 63.7 µM | – | – | – | – | –
NC(=O)c1cccc(Nc2nccc(Nc3cccc4[nH]ncc34)n2)c1 | – | > 25 µM | 8.73 µM | – | – | – | – | –
COc1cccc(C2c3cc4c(cc3OC(N3CCCC3)C2C)OCO4)c1O (stereo not given) | 4.38 | 73.5 µM | – | – | – | – | – | –
CCN(CC)CCCNC(=O)c1c2c(n3ccccc13)C(=O)c1ncccc1C2=O | – | 6.65 µM | 0.616 µM | – | – | – | – | –
COC(C(=O)NCCCCNC(=O)C(OC)c1ccccc1)c1ccccc1 (stereo not given) | – | – | – | > 100 | > 100 | > 100 | > 100 | > 100
Cc1cn2c(/C=N/N=C(N)N)c(-c3cccs3)nc2s1 | – | 12.4 µM | 2.99 µM | – | – | – | – | –
CN(Cc1cc(Cl)cc(Cl)c1)CC(C(=O)c1ccccc1)c1ccccc1 (stereo not given) | – | 29.3 µM | – | – | – | – | – | –
COc1cc(CNC2c3cc4c(cc3C(c3cc(OC)c(OC)c(OC)c3)[C@H]3C(=O)OCC23)OCO4)cc(OC)c1OC (stereo not given in full) | – | – | – | > 100 | 0.444 | > 100 | > 100 | –
CN(C)c1nc(=Nc2cccc(Cl)c2)ss1 | – | – | – | 32.6 | 25.8 | 21.7 | 24.8 | 26.8
